Data published in patent publication US20170210738A1, “GLUCOSE TRANSPORT INHIBITORS” (Bayer Pharma Aktiengesellschaft, priority 2014, published 2017).

Target: T1, GLUT1 (Homo sapiens, UniProt P11166)
T1 construct: endogenous in cells; host or cells: DLD1 or CHO-K1
T1 sequence (P11166 1-492): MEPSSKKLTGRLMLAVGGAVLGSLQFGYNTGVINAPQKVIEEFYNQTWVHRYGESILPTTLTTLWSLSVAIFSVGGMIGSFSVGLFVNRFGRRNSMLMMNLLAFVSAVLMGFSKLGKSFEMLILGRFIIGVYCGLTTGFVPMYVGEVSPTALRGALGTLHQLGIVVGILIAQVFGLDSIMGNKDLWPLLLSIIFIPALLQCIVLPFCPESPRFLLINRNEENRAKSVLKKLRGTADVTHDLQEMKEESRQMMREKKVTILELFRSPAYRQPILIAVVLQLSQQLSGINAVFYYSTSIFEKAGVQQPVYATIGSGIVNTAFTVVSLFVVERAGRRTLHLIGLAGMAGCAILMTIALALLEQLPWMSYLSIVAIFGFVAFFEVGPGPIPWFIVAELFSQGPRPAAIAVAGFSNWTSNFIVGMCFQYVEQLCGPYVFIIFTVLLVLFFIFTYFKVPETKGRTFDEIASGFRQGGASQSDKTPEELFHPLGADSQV
Test: Indirect measurement of GLUT activity by quantification of intracellular ATP levels: glucose induced ATP increase (GLUT1 inhibition)
Type: cell-based
Details: DLD1 cells; 1 mM glucose, 1 uM Rotenone, 15 min; CellTiter-Glo ATP levels; IC50 values standardized to cytochalasin B IC50 values; read-out: IC50 regarding glucose induced ATP increase (GLUT1 inhibition)
Source text: Indirect Measurement of GLUT Activity by Quantification of Intracellular ATP Levels
It is well known that a combination of small-molecule inhibitors of mitochondrial electron transport chain and glucose catabolism synergistically suppress ATP production and impair cellular viability (Ulanovskaya et al., 2008, 2011; Liu, et al. 2001). We therefore used DLD1 or CHO-K1 cells in combination with an oxidative phosphorylation inhibitor to identify GLUT inhibitors. Cell lines were maintained in DMEM medium supplemented with 10% FCS and 1% Penicillin-Streptomycin solution and 2% Glutamax. The cells were treated with trypsin and seeded into 384 plates at a density of 4000 cells/well. The cells were then cultured overnight in glucose free media containing 1% FCS to reduce intracellular ATP levels. After 24 h the cells were incubated at 37° C. containing the appropriate glucose or in case of GLUT2 fructose concentration (1 mM and 30 mM respectively) with or without compounds and 1 uM Rotenone for 15 min. The CellTiter-Glo® Luminescent Cell Viability Assay from Promega was then used to measure ATP levels. Compounds able to reduce the ATP levels within 15 min of glucose application were considered to be glucose uptake inhibitors.

Cc1c(NC(=O)c2cc(C(F)(F)F)nc3cc(F)c(F)cc23)cnn1Cc1ccc(F)cc1 [Example 2, 6,7-difluoro-N-[1-(4-fluorobenzyl)-5-methyl-1H-pyrazol-4-yl]-2-(trifluoromethyl)quinoline-4-carboxamide] was tested. Which IC50 did it give?
The IC50 was 124 nM.

Which IC50 does the source give for COc1cc(C(=O)Nc2cnn(Cc3ccc(F)cc3)c2C)c2ccccc2n1 [Example 3, N-[1-(4-fluorobenzyl)-5-methyl-1H-pyrazol-4-yl]-2-methoxyquinoline-4-carboxamide] here?
The IC50 was 152 nM.

With Cc1c(NC(=O)c2cc(C(F)(F)F)nc3ccc(Br)cc23)cnn1Cc1ccc(F)cc1 [Example 4, 6-bromo-N-[1-(4-fluorobenzyl)-5-methyl-1H-pyrazol-4-yl]-2-(trifluoromethyl)quinoline-4-carboxamide] as the compound, how does the IC50 read?
The IC50 was 12 nM.

Cc1c(NC(=O)c2cc(C(N)=O)nc3ccccc23)cnn1Cc1ccc(F)cc1 [Example 5, N^4-[1-(4-fluorobenzyl)-5-methyl-1H-pyrazol-4-yl]quinoline-2,4-dicarboxamide] was tested. Which IC50 did it give?
Its IC50 is 18 nM.

With Cc1c(NC(=O)c2cc(C3CC3)nc3ccc(F)cc23)cnn1Cc1ccc(F)cc1 [Example 6, 2-cyclopropyl-6-fluoro-N-[1-(4-fluorobenzyl)-5-methyl-1H-pyrazol-4-yl]quinoline-4-carboxamide] as the compound, how does the IC50 read?
The IC50 was 91 nM.

For Cc1c(NC(=O)c2cc(C(F)(F)F)nc3c(Cl)cc(Cl)cc23)cnn1Cc1ccc(F)cc1 [Example 7, 6,8-dichloro-N-[1-(4-fluorobenzyl)-5-methyl-1H-pyrazol-4-yl]-2-(trifluoromethyl)quinoline-4-carboxamide], which IC50 is on record?
The IC50 was 185 nM.

Which IC50 does the source give for Cc1c(NC(=O)c2cc(C(F)(F)F)nc3ccc(Br)cc23)cnn1Cc1ccc(C#N)cc1 [Example 8, 6-bromo-N-[1-(4-cyanobenzyl)-5-methyl-1H-pyrazol-4-yl]-2-(trifluoromethyl)quinoline-4-carboxamide] here?
Its IC50 is 12 nM.

Cc1c(NC(=O)c2cc(C(N)=O)nc3ccccc23)cnn1Cc1ccc(C#N)cc1 [Example 9, N^4-[1-(4-cyanobenzyl)-5-methyl-1H-pyrazol-4-yl]quinoline-2,4-dicarboxamide] was tested. Which IC50 did it give?
The IC50 was 8.9 nM.

Which IC50 does the source give for COc1ccc(Cn2ncc(NC(=O)c3cc(OC)nc4ccccc34)c2C)cc1 [Example 11, 2-methoxy-N-[1-(4-methoxybenzyl)-5-methyl-1H-pyrazol-4-yl]quinoline-4-carboxamide] here?
Its IC50 is 19 nM.

Which IC50 does the source give for COc1ccc(Cn2ncc(NC(=O)c3cc(C(F)(F)F)nc4ccc(Br)cc34)c2C)cc1 [Example 12, 6-bromo-N-[1-(4-methoxybenzyl)-5-methyl-1H-pyrazol-4-yl]-2-(trifluoromethyl)quinoline-4-carboxamide] here?
The IC50 was 4 nM.

COc1ccc(Cn2ncc(NC(=O)c3cc(C(N)=O)nc4ccccc34)c2C)cc1 [Example 13, N^4-[1-(4-methoxybenzyl)-5-methyl-1H-pyrazol-4-yl]quinoline-2,4-dicarboxamide] was tested. Which IC50 did it give?
Its IC50 is 2.2 nM.

How did the IC50 turn out when Cc1c(NC(=O)c2cc(C(F)(F)F)nc3ccc(Br)cc23)cnn1Cc1ccccc1C#N [Example 14, 6-bromo-N-[1-(2-cyanobenzyl)-5-methyl-1H-pyrazol-4-yl]-2-(trifluoromethyl)quinoline-4-carboxamide] was run?
Its IC50 is 173 nM.

Cc1c(NC(=O)c2cc(C(N)=O)nc3ccccc23)cnn1Cc1ccccc1C#N [Example 15, N^4-[1-(2-cyanobenzyl)-5-methyl-1H-pyrazol-4-yl]quinoline-2,4-dicarboxamide] was tested. Which IC50 did it give?
The IC50 was 755 nM.

With O=C(Nc1cnn(Cc2ccc(F)cc2)c1C(=O)O)c1cc(C(F)(F)F)nc2ccc(Br)cc12 [Example 17, 4-({[6-bromo-2-(trifluoromethyl)quinolin-4-yl]carbonyl}amino)-1-(4-fluorobenzyl)-1H-pyrazole-5-carboxylic acid] as the compound, how does the IC50 read?
Its IC50 is 10200 nM.

For NC(=O)c1c(NC(=O)c2cc(C(F)(F)F)nc3ccc(Br)cc23)cnn1Cc1ccc(F)cc1 [Example 18, 6-bromo-N-[5-carbamoyl-1-(4-fluorobenzyl)-1H-pyrazol-4-yl]-2-(trifluoromethyl)quinoline-4-carboxamide], which IC50 is on record?
Its IC50 is 1250 nM.

COC(=O)c1c(NC(=O)c2cc(C(F)(F)F)nc3ccc(Br)cc23)cnn1Cc1ccc(C#N)cc1 [Example 19, methyl 4-({[6-bromo-2-(trifluoromethyl)quinolin-4-yl]carbonyl}amino)-1-(4-cyanobenzyl)-1H-pyrazole-5-carboxylate] was tested. Which IC50 did it give?
The IC50 was 1070 nM.

How did the IC50 turn out when N#Cc1ccc(Cn2ncc(NC(=O)c3cc(C(F)(F)F)nc4ccc(Br)cc34)c2C(=O)O)cc1 [Example 20, 4-({[6-bromo-2-(trifluoromethyl)quinolin-4-yl]carbonyl}amino)-1-(4-cyanobenzyl)-1H-pyrazole-5-carboxylic acid] was run?
Its IC50 is 10200 nM.

Which IC50 does the source give for CNC(=O)c1c(NC(=O)c2cc(C(F)(F)F)nc3ccc(Br)cc23)cnn1Cc1ccc(C#N)cc1 [Example 21, 6-bromo-N-[1-(4-cyanobenzyl)-5-(methylcarbamoyl)-1H-pyrazol-4-yl]-2-(trifluoromethyl)quinoline-4-carboxamide] here?
The IC50 was 3960 nM.

How did the IC50 turn out when N#Cc1ccc(Cn2ncc(NC(=O)c3cc(C(F)(F)F)nc4ccc(Br)cc34)c2C(N)=O)cc1 [Example 22, 6-bromo-N-[5-carbamoyl-1-(4-cyanobenzyl)-1H-pyrazol-4-yl]-2-(trifluoromethyl)quinoline-4-carboxamide] was run?
The IC50 was 387 nM.

Cc1c(NC(=O)c2cc(C3CC3)nc3ccc(Br)cc23)cnn1Cc1ccc(C#N)cc1 [Example 23, 6-bromo-N-[1-(4-cyanobenzyl)-5-methyl-1H-pyrazol-4-yl]-2-cyclopropylquinoline-4-carboxamide] was tested. Which IC50 did it give?
Its IC50 is 2.9 nM.

How did the IC50 turn out when Cc1c(NC(=O)c2cc(C(N)=O)nc3cc(F)ccc23)cnn1Cc1ccc(C#N)cc1 [Example 24, N^4-[1-(4-cyanobenzyl)-5-methyl-1H-pyrazol-4-yl]-7-fluoroquinoline-2,4-dicarboxamide] was run?
Its IC50 is 7.1 nM.

Which IC50 does the source give for Cc1c(NC(=O)c2cc(C(N)=O)nc3cc(F)c(Cl)cc23)cnn1Cc1ccc(C#N)cc1 [Example 25, 6-chloro-N^4-[1-(4-cyanobenzyl)-5-methyl-1H-pyrazol-4-yl]-7-fluoroquinoline-2,4-dicarboxamide] here?
The IC50 was 6.5 nM.

With Cc1c(NC(=O)c2cc(C(N)=O)nc3ccccc23)cnn1Cc1ccc(F)c(F)c1 [Example 26, N^4-[1-(3,4-difluorobenzyl)-5-methyl-1H-pyrazol-4-yl]quinoline-2,4-dicarboxamide] as the compound, how does the IC50 read?
The IC50 was 95 nM.

With Cc1c(NC(=O)c2cc(C(N)=O)nc3ccccc23)cnn1Cc1cccc(F)c1 [Example 27, N^4-[1-(3-fluorobenzyl)-5-methyl-1H-pyrazol-4-yl]quinoline-2,4-dicarboxamide] as the compound, how does the IC50 read?
The IC50 was 52 nM.

How did the IC50 turn out when Cc1c(NC(=O)c2cc(C(N)=O)nc3ccccc23)cnn1CC1CCCCC1 [Example 28, N^4-[1-(cyclohexylmethyl)-5-methyl-1H-pyrazol-4-yl]quinoline-2,4-dicarboxamide] was run?
Its IC50 is 349 nM.

With Cc1c(NC(=O)c2cc(C(N)=O)nc3ccccc23)cnn1Cc1ccncc1 [Example 29, N^4-[5-methyl-1-(pyridin-4-ylmethyl)-1H-pyrazol-4-yl]quinoline-2,4-dicarboxamide] as the compound, how does the IC50 read?
The IC50 was 2150 nM.

CCc1c(NC(=O)c2cc(C(N)=O)nc3cc(F)ccc23)cnn1Cc1ccc(C#N)cc1 [Example 30, N^4-[1-(4-cyanobenzyl)-5-ethyl-1H-pyrazol-4-yl]-7-fluoroquinoline-2,4-dicarboxamide] was tested. Which IC50 did it give?
Its IC50 is 46 nM.

CCc1c(NC(=O)c2cc(C(N)=O)nc3ccccc23)cnn1Cc1ccc(C#N)cc1 [Example 31, N^4-[1-(4-cyanobenzyl)-5-ethyl-1H-pyrazol-4-yl]quinoline-2,4-dicarboxamide] was tested. Which IC50 did it give?
Its IC50 is 201 nM.

With CCc1c(NC(=O)c2cc(C(N)=O)nc3cc(F)c(Cl)cc23)cnn1Cc1ccc(C#N)cc1 [Example 32, 6-chloro-N^4-[1-(4-cyanobenzyl)-5-ethyl-1H-pyrazol-4-yl]-7-fluoroquinoline-2,4-dicarboxamide] as the compound, how does the IC50 read?
The IC50 was 43 nM.

How did the IC50 turn out when CC(C)c1c(NC(=O)c2cc(C(N)=O)nc3cc(F)ccc23)cnn1Cc1ccc(C#N)cc1 [Example 33, N^4-[1-(4-cyanobenzyl)-5-isopropyl-1H-pyrazol-4-yl]-7-fluoroquinoline-2,4-dicarboxamide] was run?
The IC50 was 940 nM.

Which IC50 does the source give for Cc1c(NC(=O)c2cc(C(N)=O)nc3ccccc23)cnn1Cc1ccn(C)n1 [Example 34, N^4-{5-methyl-1-[(1-methyl-1H-pyrazol-3-yl)methyl]-1H-pyrazol-4-yl}quinoline-2,4-dicarboxamide] here?
Its IC50 is 753 nM.

For CCc1noc(Cn2ncc(NC(=O)c3cc(C(F)(F)F)nc4ccc(Br)cc34)c2C)n1 [Example 35, 6-bromo-N-{1-[(3-ethyl-1,2,4-oxadiazol-5-yl)methyl]-5-methyl-1H-pyrazol-4-yl}-2-(trifluoromethyl)quinoline-4-carboxamide], which IC50 is on record?
Its IC50 is 1200 nM.
